Values of other authors as cited in patent US20070098654A1, “Nail whitening composition” (L'OREAL, priority 2005, published 2007).

Settings: at 20° C.

Solubility in water: about 500 g/l
SMILES: NC(N)=O.OO [Carbamide peroxide]
